Test results as given in a melting point compilation (Tetko et al.; mined from patent text by program, amines drawn as free bases though some values may be those of a salt).
Residues, ends and D or L forms follow the SMILES beside them. *: point of attachment. Boc = CC(C)(C)OC(=O)*; OBn = c1ccc(CO*)cc1; Bn = c1ccc(C*)cc1

With C=CC(CC(O)C(CC1CCCCC1)NC(=O)C(Cc1c[nH]cn1)NC(=O)C(Cc1ccccc1)NC(=O)OC(C)(C)C)C(C)C (configuration not stated) the melting point was 161 °C.
Cc1nnc(-c2cccc(I)c2)s1 gave a melting point of 86 to 89 °C.
With CCN1CCC(O)(c2cc(F)cc(F)c2)C1 (single isomer, unassigned; (-)) the melting point was 111 to 112 °C.
In the case of COC1=C(OC)C(=O)C2=C(CC(CCCCCCCC(N)=O)(C(N)=O)C2)C1=O, the melting point is reported as 140 to 143 °C.
Work on Nc1cc(F)c(F)c(Br)c1Cl yielded a melting point of 83 to 86 °C.
Work on CC(O)CNCc1cc2c(=O)c(C(=O)NCc3ccc(Cl)cc3)cn(C)c2o1 (configuration not stated) yielded a melting point of 172 to 173 °C.
Compound COc1cc(OC)c([C@@H]2CCN(C)C[C@H]2O)c(OC)c1 (relative stereo) has a melting point of 96 to 97 °C.
Fc1ccc(-c2cncc(CN3CCN(c4ncccn4)CC3)c2)cc1 gave a melting point of 97 to 98 °C.
CN(O)C(=O)c1ccc(CCCCc2ccccc2)cc1 showed a melting point of 62 to 63.5 °C.
CC(NC(=O)C(Cc1ccc(OCc2ccccc2)cc1)NC(=O)OC(C)(C)C)C(=O)NCC(=O)OCc1ccccc1 (stereo not drawn) (Boc-Tyr(Bn)-Ala-Gly-OBn; configuration not given here) showed a melting point of 145 to 147 °C.
Work on CCN(Cc1cc(Br)ccc1OCC1CC1)c1ccc(C(=O)O)nn1 yielded a melting point of 73 to 80 °C.
Cn1ncnc1COc1nn2c(-c3ccccc3F)nncc2c1I showed a melting point of 218 to 219 °C.
CC1=C2CCC3C(CCC4(C)C3CCC4(C)O)C2(C)CCC1=O (configuration not stated) showed a melting point of 141 to 144 °C.
Work on Nc1nc(/C(=N/OCc2nnn[nH]2)C(=O)O)cs1 yielded a melting point of 151 to 152 °C.
With O=C1CNC(=O)N1c1cc(Cl)cc(Cl)c1 the melting point was 199 °C.
With C[Si](C)(C)CCOC(=O)c1cccc(NC(=O)NCC(=O)O)c1 the melting point was 173 °C.
Cn1c(CO)nc2ccc(Cl)nc21 showed a melting point of 204 to 210 °C.
Work on CN1C(=O)CC(=O)N(c2ccccc2)c2cc(Cl)ccc21 yielded a melting point of 166 to 168 °C.
Compound CC12CCC(=O)C=C1CCC1C2CCC2(C)C(C(=O)c3ccccc3)CCC12 (configuration not stated) has a melting point of 171 to 173 °C.
CCC(C)COc1ccc(-c2ccc(O)c(Br)c2)cc1 (configuration not stated) showed a melting point of 49.4 °C.
With Cc1cccc(COc2cccc(OCc3ccc(-c4ccccc4)cn3)c2)c1C(=O)O the melting point was 80 to 83 °C.
In the case of COc1cccc(N2C(CO)=Cc3ccsc3S2(=O)=O)c1, the melting point is reported as 141 to 143 °C.
CN(C)C1(c2ccccc2Cl)C(=O)N(Cc2ccc([N+](=O)[O-])cc2)c2ccc(Cl)cc21 (configuration not stated) showed a melting point of 189 to 193 °C.
In the case of CCOC(=O)COc1cc(S(C)(=O)=O)ccc1C(=O)NCc1ccc(Br)cc1F, the melting point is reported as 140 to 143 °C.
Compound Cc1cc(SCc2ccnc3c2nc(-c2ccc(C(F)(F)F)cc2)n3C)ccc1CCC(=O)O has a melting point of 89 to 91 °C.
O=C(O)C(O)=CC(=O)c1cn(Cc2ccccc2)c(=O)n(Cc2ccccc2)c1=O showed a melting point of 186 to 188 °C.
With CC(C)(C)OC(=O)NNCCC12CC3CC(CC(C3)C1)C2 the melting point was 73.5 to 81 °C.
Compound Cc1cc(Br)cnc1CCCCNC1=NS(=O)(=O)c2cc(-c3ccccn3)ccc21 has a melting point of 233 to 234 °C.
CCOC(=O)CCc1cc(-c2cc3ccccc3c(=O)o2)ccc1OC showed a melting point of 105 to 106 °C.
CC(C)(C)OC(=O)NCC1CCN(CC2(C(=O)O)CCOCC2)CC1 showed a melting point of 129 °C.
Compound N#Cc1c(N2CCc3ccccc3CC2)nc(CCOC2CCCCO2)[nH]c1=O (configuration not stated) has a melting point of 185 to 187 °C.
For CC(C)c1cc(C(C)C)c(CC(=O)NS(=O)(=O)Oc2c(C(C)C)cc(S(N)(=O)=O)cc2C(C)C)c(C(C)C)c1, the melting point was 164 to 166 °C.
Cc1ccc(Nc2cccc3c2OC(COS(=O)(=O)c2ccc(C)cc2)C3)cc1 (configuration not stated) showed a melting point of 118 to 120 °C.
CCc1nc2c(N)nc3cccnc3c2n1CC1(O)CCNCC1 gave a melting point of 232 to 233 °C.
Compound CCOC(=O)N=C(NC(=O)Nc1ccc(C)cc1)SCC has a melting point of 110 to 112 °C.
With NC(=O)c1[nH]c2ccc(Cl)cc2c1S(=O)(=O)c1ccc(Cl)cc1 the melting point was 275 to 277 °C.
BrC(Br)c1nc(C(Br)Br)nc(C(Br)Br)n1 showed a melting point of 130 to 131 °C.
Compound O=c1[nH]c2ccc(S(=O)(=O)NCCBr)cc2[nH]c1=O has a melting point of 261 to 266 °C.
For CCOC(=O)c1c(CN(C)C2CCCCC2)nc2cc(OC)c(OC)cc2c1-c1ccc(OC)c(OC)c1, the melting point was 172 to 174 °C.
In the case of Cc1ccc(CCc2cc(Br)c3nc(N)sc3c2)nc1, the melting point is reported as 216 to 218 °C.
CCOCCC(=O)NN gave a melting point of 34 °C.
In the case of CCCC(=O)OCCOc1ccc2oc3cc(-c4nnn[nH]4)ccc3c(=O)c2c1, the melting point is reported as 207 to 209 °C.
For CCCc1c(COc2ccc(C(=O)c3cccc(-c4nnn[nH]4)c3)cc2)ccc(C(C)=O)c1O, the melting point was 208 to 214 °C.
With Oc1ccc2nc(-n3ccnc3)nc(NCc3ccccc3)c2c1 the melting point was 230 °C.
Work on Cc1ccc(S(=O)(=O)OCC(=O)C(=NO)C(=O)OC(C)(C)C)cc1 yielded a melting point of 106 to 108 °C.
For Cc1ccc(OCC2=NCCN2)c(C)c1NS(C)(=O)=O, the melting point was 216 to 217 °C.
For O=S(=O)(Nc1ccc(-c2nn(S(=O)(=O)c3ccccc3)c3c2Cc2ccccc2-3)cc1)c1ccccc1, the melting point was 251 to 252 °C.
CCCCCC1(C)OCc2c1cnc(C)c2OCC(=O)O (configuration not stated) gave a melting point of 211 °C.
Cc1nccn2c(-c3ccnc(NCCC(C)(C)O)n3)c(-c3ccc(F)cc3F)nc12 showed a melting point of 175 °C.
Compound CCOC1CC2(C)C(CCC3C4CC(C)C(C(C)=O)C4(C)CC(=O)C32)CC1O (configuration not stated) has a melting point of 178 to 179 °C.
Work on COC(=O)CCCOc1cc([N+](=O)[O-])c(C=O)cc1OC yielded a melting point of 75 °C.
Work on CCc1ccc(OCCCN2CCC(C(O)(c3ccc(F)cc3)c3ccc(F)cc3)CC2)c(OC)c1 yielded a melting point of 118 to 120 °C.
Work on O=C(NC1CCN(C(=O)c2ccccc2)CC1)c1ccccc1Oc1ccc(Cl)cc1Cl yielded a melting point of 63 to 66 °C.
CC(C)(C)OC(=O)N1CCN(CC(O)CNc2ccc(CC#N)cc2)CC1 (configuration not stated) gave a melting point of 86 to 87 °C.
In the case of CC(C)c1cc(Cl)cc(C(C)C)c1NC(=O)NS(=O)(=O)c1cccc(S(N)(=O)=O)c1, the melting point is reported as 172 to 177 °C.
CC(=O)Nc1nc2ccc(OC(C)=O)cc2n1S(=O)(=O)N(C)C showed a melting point of 164 to 166 °C.
In the case of CC(C)c1c(Sc2cc(Cl)cc(Cl)c2)nc(COCCO)n1C, the melting point is reported as 67 to 68 °C.
CCc1nc(C(=O)OC)c(Cl)c(N)c1F gave a melting point of 109 to 110 °C.
For O=C(Nc1ccc(-n2nc(C(F)(F)F)cc2C(F)(F)F)cc1-n1nc(C(F)(F)F)cc1C(F)(F)F)c1ccc(F)cc1F, the melting point was 114 to 115 °C.
Compound CC(C=CC=C(C)C=CC1C(C)=CC(=O)CC1(C)C)=CC=CC=C(C)C=CC=C(C)C=CC1C(C)=CC(=O)CC1(C)C (configuration not stated) has a melting point of 185 to 187 °C.
In the case of Fc1ccccc1-c1n[nH]c(-c2ccccc2C(F)(F)F)n1, the melting point is reported as 153 to 155 °C.
For O=C(NCc1ccco1)c1ccc(-c2ccc3nnn(Cc4ccc5ncccc5c4)c3n2)cc1F, the melting point was 144 to 147 °C.
O=C1CCCc2c1c(-c1ccccc1)nn2-c1ccccc1 gave a melting point of 162 °C.
In the case of CC(C)(C)NC1CCCCC1O (configuration not stated), the melting point is reported as 42 to 44 °C.
Work on N#CC(C#N)=C1N(CCN2CCCCC2)CCN1CCN1CCCCC1 yielded a melting point of 104 to 106 °C.
COc1ccc2c(CCN3CC=C(c4c[nH]c5ccccc45)CC3)coc2c1 gave a melting point of 54 °C.
O=C1CCC(N2Cc3c(OCc4ccc(CN5CCC(c6ccccc6)CC5)cc4)cccc3C2=O)C(=O)N1 (configuration not stated) showed a melting point of 220 to 222 °C.
COC(=O)c1cc(C(=O)c2cccc(F)c2)ccc1OC gave a melting point of 140 °C.
For COCCNc1ccnc2c(NC(=O)c3c(Cl)cccc3Cl)cccc12, the melting point was 166 °C.
Cc1c(C(=O)NCc2ccc3c(Br)c(O)ccc3c2)oc2ccccc12 showed a melting point of 194 to 197 °C.
In the case of COC(=O)c1nc(SC(F)(F)F)c(N)nc1N, the melting point is reported as 151 to 155 °C.
CN(CCP(O)O)c1cc(Oc2ccc(C(F)(F)F)cc2Cl)ccc1[N+](=O)[O-] showed a melting point of 161 to 164 °C.
O=C(Oc1ccc(OC(=O)c2ccccc2)c(-c2ccccc2)c1)c1cc(O)c(O)c(O)c1 showed a melting point of 82 to 84 °C.
Compound CCOC(=O)c1c(OCC)cc(C(F)(F)F)nc1C(F)(F)F has a melting point of 57 to 59 °C.
For COc1cc(C2C3=C(COC3=O)Nc3ccc4cc[nH]c4c32)cc(OC)c1OC (configuration not stated), the melting point was 299 to 301 °C.
Compound Cc1cc(-c2ccc(C(F)(F)F)cc2)cn2c(-c3nc(-c4cccc(S(N)(=O)=O)c4)no3)cnc12 has a melting point of 326 °C.
Compound Ic1cnc(-c2cccs2)s1 has a melting point of 117 to 119 °C.
Work on CC(C)Cc1cc(-c2cc(C=C3SC(=O)NC3=O)ccc2OC(F)(F)F)c2c(c1)C(C)(C)CO2 yielded a melting point of 142 to 146 °C.
In the case of COC(C(=Cc1ccc(Cl)cc1)n1cncn1)C(C)(C)C (configuration not stated), the melting point is reported as 63 to 66 °C.
Nc1cc(Br)cnc1CCCCNc1nccc(=O)[nH]1 gave a melting point of 130 to 135 °C.
Work on Clc1cc2c(s1)-n1c(nnc1CN1CCOCC1)CN=C2c1ccccc1Cl yielded a melting point of 224 to 226 °C.
Work on CSc1nc(N)nc(-c2ccc([N+](=O)[O-])o2)n1 yielded a melting point of 179 to 181 °C.
Compound OC1(c2ccccc2Cc2ccccc2)CCN(CC2CC2)C1 (configuration not stated) has a melting point of 118 to 120 °C.
Cc1cc(C(O)(C(F)(F)F)C(F)(F)F)cc(C)c1OCC(N)=O gave a melting point of 180 to 182 °C.
CCCCC1(CCCC)CCc2c(OCc3ccccn3)cccc2C1O (configuration not stated) showed a melting point of 106 to 107 °C.
Work on Fc1cccc(F)c1CCNC(=S)Nc1ccccn1 yielded a melting point of 157 to 160 °C.
In the case of CC(=O)c1cccn1[C@@H](Cc1ccc(OCCc2nc(-c3ccccc3)oc2C)cc1)C(=O)O, the melting point is reported as 110 to 112 °C.
Compound COc1ccc2c(c1)CCC(NC(C)=O)(C(=O)O)C2 (configuration not stated) has a melting point of 252 to 254 °C.
With COc1cccc(OC)c1-c1cc(C(=O)NC2(C(=O)O)C3CC4CC(C3)CC2C4)nn1-c1ccc(C#N)c2ccccc12 (configuration not stated) the melting point was 290 °C.
Compound COc1ccc(-c2cc(C(F)(F)F)n3cnc(C#N)c3n2)cc1 has a melting point of 192 °C.
In the case of OC(Cn1cncn1)(c1ccc(Cl)cc1)C1(C2CC2)CC1 (configuration not stated), the melting point is reported as 110 to 112 °C.
For CCCc1nc2c(N)nc3cc(O)ccc3c2n1CC(C)C, the melting point was greater than 265 °C.
Work on Cc1nc(O)c2c(n1)CCN(c1nc(C)nc(O)c1[N+](=O)[O-])CC2 yielded a melting point greater than 200 °C.
OC1CCc2cccc(Nc3cc(-c4ccc(C(F)(F)F)cc4)ncn3)c2C1 (configuration not stated) showed a melting point of 178 to 179 °C.
Compound CC(=O)OC1CSC(Sc2ccc(C(C)=O)cc2)C(OC(C)=O)C1OC(C)=O (configuration not stated) has a melting point of 122 °C.
For O=c1n(-c2cccc3ccccc23)c(=O)n(CCO)n1CCO, the melting point was 211 to 212 °C.
In the case of CCC1(CC)c2cc(Br)ccc2-c2ccc(Br)cc21, the melting point is reported as 144 to 153 °C.
